34 compounds from patent US7960556B2, “Thiadiazole derivatives for the treatment of neuro-degenerative diseases” (NV reMYND, priority 2006, dated 2011) can be followed below.

In general, EC50 refers to the concentration needed to bring the measured effect to its halfway point.

The subject of the experiment is α-synuclein cytotoxicity in M17-SYNwt cells. Kind of experiment: α-synuclein cytotoxicity assay: LDH leakage from paraquat-treated M17-SYNwt neuroblastoma cells.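 As to all read-outs here: paraquat at 32 mM co-added with compound, 40 h exposure, LDH activity released into the culture medium measured, references are DMSO-only cells and paraquat plus DMSO cells.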 The note with it: Homo sapiens, Neuroblastoma cell; for Emax: read-out: % Inhib. A general note: LDH leaks from cells whose membrane has failed.

As for `Fc1ccc(Cc2nsc(N3CCN(C/C=C/c4ccccc4)CC3)n2)cc1` [compound 93, 1-[3-phenylprop-2-enyl]-4-[3-(4-fluorobenzyl)-1,2,4-thiadiazol-5-yl]piperazine], the EC50 was 1990 nM and the Emax came to 91%.

On to `CC(=O)Nc1ccc(S(=O)(=O)N2CCN(c3nc(Cc4ccc(C)cc4)ns3)CC2)cc1` [compound 49, 1-[4-acetamidophenylsulfonyl]-4-[3-(4-methylbenzyl)-1,2,4-thiadiazol-5-yl]piperazine], for which a half-maximal effect (EC50) was put at 0.106 nM and the Emax turned out to be 77%.

Regarding `O=S(=O)(Cc1ccccc1)N1CCN(c2nc(Cc3ccc(Cl)cc3)ns2)CC1` [compound 76, 1-(benzylsulfonyl)-4-[3-(4-chlorobenzyl)-1,2,4-thiadiazol-5-yl]piperazine], the Emax is 40%.

As to `CC1CN(c2nc(Cc3ccc(F)cc3)ns2)CCN1S(=O)(=O)c1ccccc1` (stereo not shown) [compound 47, 1-phenylsulfonyl-4-[3-(4-fluorobenzyl)-1,2,4-thiadiazol-5-yl]-2-methylpiperazine], the Emax was 129%.

For the compound `CCc1ccc(C(=O)N2CCN(c3nc(Cc4cccc(OC)c4)ns3)CC2C)cc1` (stereo not shown) [compound 143, 1-(4-ethylbenzoyl)-4-[3-(3-methoxybenzyl)-1,2,4-thiadiazol-5-yl]-2-methylpiperazine], the EC50 is 560 nM and the Emax amounted to 89%.

Regarding `Cc1ccc(S(=O)(=O)N2CCN(c3nc(Cc4ccc(Cl)cc4)ns3)CC2)cc1` [compound 63, 1-[4-methylphenylsulfonyl]-4-[3-(4-chlorobenzyl)-1,2,4-thiadiazol-5-yl]piperazine], the EC50 came out at 80.7 nM and the Emax came to 83%.

For the compound `Cc1ccc(Cc2nsc(N3CCN(C(=O)c4ccccc4)CC3)n2)cc1` [compound 158, 1-benzoyl-4-[3-(4-methylbenzyl)-1,2,4-thiadiazol-5-yl]piperazine], a half-maximal effect (EC50) was put at 2100 nM and the Emax turned out to be 57%.

In the case of `CCOc1ccc(NC(=O)N2CCN(c3nc(Cc4ccc(F)cc4)ns3)CC2C)cc1` (stereo not shown) [compound 14, N-(4-ethoxyphenyl)-4-[3-(4-fluorobenzyl)-1,2,4-thiadiazol-5-yl]-2-methylpiperazine-1-carboxamide], the half-maximal effective concentration (EC50) turned out to be 1730 nM and the Emax stood at 70%.

`COc1cccc(Cc2nsc(N3CCN(C(=O)c4ccc(Br)cc4)C(C)C3)n2)c1` (stereo not shown) [compound 170, 1-(4-bromobenzoyl)-4-[3-(3-methoxybenzyl)-1,2,4-thiadiazol-5-yl]-2-methylpiperazine]: the Emax was 89%.

Turning to `CCCCc1ccc(C(=O)NCCN2CCN(c3nc(Cc4ccc(F)cc4)ns3)CC2)cc1` [compound 95, 4-butyl-N-{2-[4-[3-(4-fluorobenzyl)-1,2,4-thiadiazol-5-yl]piperazin-1-yl]ethyl}benzamide], the EC50 is 380 nM and the Emax is 78%.

As for `COc1ccc(S(=O)(=O)NCCCNc2nc(Cc3cccc(OC)c3)ns2)cc1` [compound 211, N-[4-methoxyphenylsulfonyl]-N′-[3-(3-methoxybenzyl)-1,2,4-thiadiazol-5-yl]-propane-1,3-diamine], the midpoint of the response, the EC50, lay at 367 nM and the Emax came to 100%.

`CC1CN(c2nc(Cc3ccc(F)cc3)ns2)CCN1C(=O)c1ccc2c(c1)OCO2` (stereo not shown) [compound 178, 1-(1,3-benzodioxol-5-ylcarbonyl)-4-[3-(4-fluorobenzyl)-1,2,4-thiadiazol-5-yl]-2-methylpiperazine]: the Emax came out at 68%.

On to `CC1CN(c2nc(Cc3ccc(F)cc3)ns2)CCN1C(=O)Nc1ccc(F)c(F)c1` (stereo not shown) [compound 26, N-(3,4-difluorophenyl)-4-[3-(4-fluorobenzyl)-1,2,4-thiadiazol-5-yl]-2-methylpiperazine-1-carboxamide], for which the Emax came to 70%.

`Cc1ccc(Cc2nsc(N3CCN(C(=O)c4ccc5c(c4)OCO5)C(C)C3)n2)cc1` (stereo not shown) [compound 161, 1-(1,3-benzodioxol-5-ylcarbonyl)-4-[3-(4-methylbenzyl)-1,2,4-thiadiazol-5-yl]-2-methyl + B176piperazine]: the midpoint of the response, the EC50, lay at 3360 nM and the Emax turned out to be 101%.

Consider `CC1CN(c2nc(Cc3ccc(F)cc3)ns2)CCN1C(=O)c1ccc(-c2ccccc2)cc1` (stereo not shown) [compound 129, 1-(1,1′-biphenyl-4-ylcarbonyl)-4-[3-(4-fluorobenzyl)-1,2,4-thiadiazol-5-yl]-2-methylpiperazine], for which the EC50 was 240 nM and the Emax stood at 61%.

Turning to `CC1CN(c2nc(Cc3ccc(Cl)cc3)ns2)CCN1C(=O)/C=C/c1ccccc1` (stereo not shown) [compound 86, 1-[(2E)-3-phenylprop-2-enoyl]-4-[3-(4-chlorobenzyl)-1,2,4-thiadiazol-5-yl]2-methylpiperazine], a half-maximal response (EC50) required 1130 nM and the Emax turned out to be 81%.

Regarding `Cc1ccc(NC(=O)N2CCN(c3nc(Cc4ccc(F)cc4)ns3)CC2C)c(C)c1` (stereo not shown) [compound 20, N-(2,4-dimethylphenyl)-4-[3-(4-fluorobenzyl)-1,2,4-thiadiazol-5-yl]-2-methylpiperazine-1-carboxamide], a half-maximal response (EC50) required 760 nM and the Emax is 106%.

Consider `Cc1ccc(Cc2nsc(N3CCN(S(=O)(=O)Cc4ccccc4)CC3)n2)cc1` [compound 77, 1-(benzylsulfonyl)-4-[3-(4-methylbenzyl)-1,2,4-thiadiazol-5-yl]piperazine], for which the Emax turned out to be 81%.

As for `COc1cccc(Cc2nsc(N3CCN(C(=O)c4ccccc4)C(C)C3)n2)c1` (stereo not shown) [compound 173, 1-benzoyl-4-[3-(3-methoxybenzyl)-1,2,4-thiadiazol-5-yl]-2-methylpiperazine], the Emax was determined as 85%.

On to `CC1CN(c2nc(Cc3ccc(Cl)cc3)ns2)CCN1S(=O)(=O)c1cccc2ccccc12` (stereo not shown) [compound 43, 1-[1-naphtylsulfonyl]-4-[3-(4-chlorobenzyl)-1,2,4-thiadiazol-5-yl]-2-methylpiperazine], for which it took 890 nM to reach a half-maximal effect (EC50) and the Emax was determined as 35%.

With `CCCCc1ccc(C(=O)N2CCN(c3nc(Cc4ccc(F)cc4)ns3)CC2C)cc1` (stereo not shown) [compound 120, 1-(4-butylbenzoyl)-4-[3-(4-fluorobenzyl)-1,2,4-thiadiazol-5-yl]-2-methylpiperazine], the EC50 came to 98.7 nM and the Emax turned out to be 120%.

Regarding `O=C(c1cc(Cl)cc(Cl)c1)N1CCN(c2nc(Cc3ccc(F)cc3)ns2)CC1` [compound 137, 1-(3,5-dichlorobenzoyl)-4-[3-(4-fluorobenzyl)-1,2,4-thiadiazol-5-yl]piperazine], it took 350 nM to reach a half-maximal effect (EC50) and the Emax came out at 68%.

With `O=S(=O)(c1ccc(O)cc1)N1CCN(c2nc(Cc3ccc(F)cc3)ns2)CC1` [compound 217, 1-(4-hydroxybenzenesulfonyl)-4-[3-(4-fluoro-benzyl)-1,2,4-thiadiazol-5-yl]piperazine], the EC50 turned out to be 77 nM and the Emax is 77%.

For the compound `CCCCc1ccc(C(=O)N2CCN(c3nc(Cc4ccc(C)cc4)ns3)CC2C)cc1` (stereo not shown) [compound 117, 1-(4-butylbenzoyl)-4-[3-(4-methylbenzyl)-1,2,4-thiadiazol-5-yl]-2-methylpiperazine], a half-maximal response (EC50) required 84.1 nM and the Emax is 82%.

For the compound `O=C(c1ccc(F)cc1)N1CCN(c2nc(Cc3ccccc3)ns2)CC1` [compound 163, 1-(4-fluorobenzoyl)-4-[3-benzyl-1,2,4-thiadiazol-5-yl]piperazine], the EC50 is 3610 nM and the Emax came to 67%.

In the case of `Cc1ccc(Cc2nsc(N3CCN(S(=O)(=O)c4cccc5cccnc45)CC3)n2)cc1` [compound 70, 1-[quinoline-8-sulfonyl]-4-[3-(4-methylbenzyl)-1,2,4-thiadiazol-5-yl]piperazine], the Emax is 44%.

Take `CC1CN(c2nc(Cc3ccc(Cl)cc3)ns2)CCN1C(=O)c1cccc(F)c1` (stereo not shown) [compound 125, 1-(3-fluorobenzoyl)-4-[3-(4-chlorobenzyl)-1,2,4-thiadiazol-5-yl]-2-methylpiperazine]: the EC50 is 160 nM and the Emax came to 68%.

As to `CC(=O)Nc1ccc(S(=O)(=O)N2CCN(c3nc(Cc4ccc(C)cc4)ns3)CC2C)cc1` (stereo not shown) [compound 48, 1-[4-acetamidophenylsulfonyl]-4-[3-(4-methylbenzyl)-1,2,4-thiadiazol-5-yl]-2-methylpiperazine], a half-maximal effect (EC50) was put at 8.44 nM and the Emax is 91%.

For `O=C(NCCN1CCN(c2nc(Cc3ccc(F)cc3)ns2)CC1)c1ccc(F)cc1` [compound 102, 4-fluoro-N-{2-[4-[3-(4-fluorobenzyl)-1,2,4-thiadiazol-5-yl]piperazin-1-yl]ethyl}benzamide], the midpoint of the response, the EC50, lay at 1990 nM and the Emax came out at 80%.

On to `CC1CN(c2nc(Cc3ccc(F)cc3)ns2)CCN1C(=O)C(Cl)c1ccccc1` (stereo not shown) [compound 7, 1-[chloro(phenyl)acetyl]-4-[3-(4-fluorobenzyl)-1,2,4-thiadiazol-5-yl]-2-methylpiperazine], for which the Emax was 69%.

With `CC1CN(c2nc(Cc3ccc(Cl)cc3)ns2)CCN1C(=O)c1ccccc1F` (stereo not shown) [compound 167, 1-(2-fluorobenzoyl)-4-[3-(4-chlorobenzyl)-1,2,4-thiadiazol-5-yl]-2-methylpiperazine], the Emax was 117%.

With `CC1CN(c2nc(Cc3ccc(F)cc3)ns2)CCN1S(=O)(=O)c1cccc(C(F)(F)F)c1` (stereo not shown) [compound 46, 1-[3-trifluorophenylsulfonyl]-4-[3-(4-fluorobenzyl)-1,2,4-thiadiazol-5-yl]-2-methylpiperazine], the midpoint of the response, the EC50, lay at 1340 nM and the Emax came out at 64%.

`COc1ccc(S(=O)(=O)N2CCN(c3nc(Cc4ccc(C)cc4)ns3)CC2C)cc1` (stereo not shown) [compound 60, 1-[4-methoxyphenylsulfonyl]-4-[3-(4-methylbenzyl)-1,2,4-thiadiazol-5-yl]-2-methylpiperazine]: the EC50 amounted to 0.033 nM and the Emax came to 93%.

With `O=C(Cc1ccccc1)N1CCN(c2nc(Cc3ccc(F)cc3)ns2)CC1` [compound 1, 4-phenylacetyl-1-[3-(4-fluorobenzyl)-1,2,4-thiadiazol-5-yl]piperazine], the EC50 amounted to 150 nM and the Emax turned out to be 75%.
